Test results from BindingDB's records for patent US11708351 (Achillion Pharmaceuticals, 2023).

Target: Complement factor D (Homo sapiens, UniProt P00746)
Test: Human Factor D Assay
Experimental: Human Factor D (purified from human serum, Complement Technology, Inc.) at 80 nM final concentration is incubated with test compound at various concentrations for 5 min at room temperature in 50 mM Tris, 1M NaCl, pH 7.5. A synthetic substrate Z-L-Lys-SBzl and DTNB (Ellman's reagent) are added to final concentrations of 100 μM each. Absorbance at 405 nm (A405) is recorded at 30 second intervals for 30 min using a microplate spectrophotometer. IC50 values are calculated by nonlinear regression of complement Factor D reaction rates as a function of test compound concentration.

Sequence of Complement factor D (P00746 whole entry): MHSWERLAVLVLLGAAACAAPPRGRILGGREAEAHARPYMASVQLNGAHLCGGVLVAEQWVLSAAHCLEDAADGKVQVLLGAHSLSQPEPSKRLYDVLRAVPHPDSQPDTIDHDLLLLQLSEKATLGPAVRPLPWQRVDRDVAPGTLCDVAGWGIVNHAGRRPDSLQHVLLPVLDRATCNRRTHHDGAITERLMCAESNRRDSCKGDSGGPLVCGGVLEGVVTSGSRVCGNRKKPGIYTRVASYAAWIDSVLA

SMILES: CC(=O)c1nn(CC(=O)N2[C@@H](C(=O)Nc3nc(Br)ccc3C)C[C@@]3(C)C[C@@H]23)c2ccc(-c3cnc(C)nc3)cc12 [US11708351, Compound 279]
- IC50: > 10 µM
